{"source": "ChEMBL document CHEMBL1140851", "about": "“Synthesis of new amonafide analogues via coupling reaction and their cytotoxic evaluation and DNA-binding studies” (Bioorg Med Chem, 2009)", "key": {"[1]": {"test_system": "DNA", "test": "Binding affinity to calf thymus DNA assessed as Scatchard binding constant by fluorescence quenching technique", "assay_type": "nucleic-acid assay", "settings": "Bos taurus"}, "[2]": {"test_system": "DNA", "test": "Binding affinity to calf thymus DNA assessed as hypochromicity at 50 uM by UV-vis absorption spectra", "assay_type": "nucleic-acid assay", "settings": "Bos taurus"}, "[3]": {"test_system": "DNA", "test": "Binding affinity to calf thymus DNA assessed as increase in viscosity of DNA by viscometric titration", "assay_type": "nucleic-acid assay", "settings": "Bos taurus"}, "[4]": {"test": "Cytotoxicity against mouse P388D1 cells after 48 hrs by MTT assay", "assay_type": "functional, cell-based", "settings": "P388D1, 48 h"}, "[5]": {"test_system": "HeLa", "test": "Cytotoxicity against human HeLa cells after 48 hrs by MTT assay", "assay_type": "functional, cell-based"}, "[6]": {"test_system": "DNA", "test": "Binding affinity to calf thymus DNA assessed as circular dichroism at 10 uM", "assay_type": "nucleic-acid assay", "settings": "Bos taurus"}}, "note": "The source made the active and inactive calls. The calls are words filed in the database; no cut-off is given here.", "data": [{"smiles": "CN(C)CCN1C(=O)c2cccc3cc(N4CCN(C)CC4)cc(c23)C1=O", "values": [{"measurement": "Kb", "setting": "[1]", "result": 2.48, "unit": "×10⁵ /M"}, {"measurement": "Activity", "setting": "[2]", "result": "Active"}, {"measurement": "Activity", "setting": "[3]", "result": "Active"}, {"measurement": "IC50", "setting": "[4]", "result": 1930, "unit": "nM"}, {"measurement": "IC50", "setting": "[5]", "result": 430, "unit": "nM"}, {"measurement": "Activity", "setting": "[6]", "result": "Active"}]}, {"smiles": "CCCCNc1cc2c3c(cccc3c1)C(=O)N(CCN(C)C)C2=O", "values": [{"measurement": "Kb", "setting": "[1]", "result": 1.23, "unit": "×10⁵ /M"}, {"measurement": "IC50", "setting": "[4]", "result": 9420, "unit": "nM"}, {"measurement": "IC50", "setting": "[5]", "result": 3240, "unit": "nM"}]}, {"smiles": "CN(C)CCN1C(=O)c2cccc3cc(N4CCOCC4)cc(c23)C1=O", "values": [{"measurement": "Kb", "setting": "[1]", "result": 0.97, "unit": "×10⁵ /M"}, {"measurement": "IC50", "setting": "[4]", "result": 9440, "unit": "nM"}, {"measurement": "IC50", "setting": "[5]", "result": 530, "unit": "nM"}]}, {"smiles": "CN(C)CCCNc1cc2c3c(cccc3c1)C(=O)N(CCN(C)C)C2=O", "values": [{"measurement": "Kb", "setting": "[1]", "result": 1.75, "unit": "×10⁵ /M"}, {"measurement": "IC50", "setting": "[4]", "result": 710, "unit": "nM"}, {"measurement": "IC50", "setting": "[5]", "result": 230, "unit": "nM"}]}, {"smiles": "CN(C)CCN1C(=O)c2cccc3cc(N4CCCCC4)cc(c23)C1=O", "values": [{"measurement": "Kb", "setting": "[1]", "result": 0.85, "unit": "×10⁵ /M"}, {"measurement": "IC50", "setting": "[4]", "result": 21600, "unit": "nM"}, {"measurement": "IC50", "setting": "[5]", "result": 2640, "unit": "nM"}]}, {"smiles": "CN(C)CCN1C(=O)c2cccc3cc(NCc4cccs4)cc(c23)C1=O", "values": [{"measurement": "Kb", "setting": "[1]", "result": 1.06, "unit": "×10⁵ /M"}, {"measurement": "IC50", "setting": "[4]", "result": 9460, "unit": "nM"}, {"measurement": "IC50", "setting": "[5]", "result": 3540, "unit": "nM"}]}, {"smiles": "CN(C)CCN1C(=O)c2cccc3cc(N)cc(c23)C1=O", "note": "[AMONAFIDE]", "values": [{"measurement": "Kb", "setting": "[1]", "result": 1.05, "unit": "×10⁵ /M"}, {"measurement": "IC50", "setting": "[4]", "result": 6020, "unit": "nM"}, {"measurement": "IC50", "setting": "[5]", "result": 680, "unit": "nM"}]}, {"smiles": "CN(C)CCN1C(=O)c2cccc3cc(N4CCSCC4)cc(c23)C1=O", "values": [{"measurement": "Kb", "setting": "[1]", "result": 0.79, "unit": "×10⁵ /M"}, {"measurement": "IC50", "setting": "[4]", "result": 36300, "unit": "nM"}, {"measurement": "IC50", "setting": "[5]", "result": 2340, "unit": "nM"}]}, {"smiles": "CN(C)CCNc1cc2c3c(cccc3c1)C(=O)N(CCN(C)C)C2=O", "values": [{"measurement": "Kb", "setting": "[1]", "result": 1.85, "unit": "×10⁵ /M"}, {"measurement": "Activity", "setting": "[2]", "result": "Active"}, {"measurement": "Activity", "setting": "[3]", "result": "Active"}, {"measurement": "IC50", "setting": "[4]", "result": 620, "unit": "nM"}, {"measurement": "IC50", "setting": "[5]", "result": 830, "unit": "nM"}, {"measurement": "Activity", "setting": "[6]", "result": "Active"}]}]}
